# Laboratory results as given in US20240247015A1, “PHOSPHORUS DERIVATIVES AS NOVEL SOS1 INHIBITORS” (BAYER AKTIENGESELLSCHAFT, priority 2021, published 2024).
# Target: interaction of human SOS1 (SOS1) with human K-RasG12C (Homo sapiens (Human), UniProt Q07889)
# Assay: Biochemical assay: hK-RasG12C interaction assay with hSOS1 (HTRF)
# Type: binding
# Settings: GST-hK-RasG12C with His-hSOS1, 60 min incubation at 20° C., mean, read-out: K-RasG12C - SOS interaction assay IC50 (mean)
# Procedure, shortened: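 Compounds, duplicates at 11 concentrations from 0.073 nM to 20 µM, were preincubated 2 min with 10 nM GST-hK-RasG12C, then 20 nM His-hSOS1 was added, all at 20 °C. After 60 min, 665/620 nm HTRF ratio normalized to DMSO and SOS1-free controls; IC50 by 4-parameter fit.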
# Sequence of interaction of human SOS1 (SOS1) with human K-RasG12C (Q07889 564-1049 limits assumed): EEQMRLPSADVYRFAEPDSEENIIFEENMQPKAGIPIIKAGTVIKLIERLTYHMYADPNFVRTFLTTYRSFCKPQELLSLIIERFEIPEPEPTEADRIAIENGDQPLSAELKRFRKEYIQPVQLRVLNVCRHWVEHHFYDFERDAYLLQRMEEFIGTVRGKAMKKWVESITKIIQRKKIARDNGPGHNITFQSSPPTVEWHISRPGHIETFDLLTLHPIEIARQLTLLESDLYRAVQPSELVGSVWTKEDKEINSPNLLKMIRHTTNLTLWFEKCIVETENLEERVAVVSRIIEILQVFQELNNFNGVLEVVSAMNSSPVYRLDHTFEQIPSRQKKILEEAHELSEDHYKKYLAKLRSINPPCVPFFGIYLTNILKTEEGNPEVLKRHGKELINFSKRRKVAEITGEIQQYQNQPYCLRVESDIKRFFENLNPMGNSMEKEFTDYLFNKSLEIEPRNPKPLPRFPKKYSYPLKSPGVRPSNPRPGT
row,IC50 [nM],SMILES
1,86.3,"CNC(=O)C(F)(F)c1cccc([C@@H](C)Nc2nc(C)nc3cnc(P(C)(C)=O)cc23)c1F [Example 51, 2-{3-[(1R)-1-{[6-(dimethylphosphoryl)-2-methylpyrido[3,4-d]pyrimidin-4-yl]amino}ethyl]-2-fluorophenyl}-2,2-difluoro-N-methylacetamide]"
2,35.5,"Cc1nc(N[C@H](C)c2cccc(C(F)F)c2F)c2cc(P3(=O)CCN(C)CC3)ncc2n1 [Example 52, 4-[4-({(1R)-1-[3-(difluoromethyl)-2-fluorophenyl]ethyl}amino)-2-methylpyrido[3,4-d]pyrimidin-6-yl]-1-methyl-1,4lambda^5-azaphosphinan-4-one]"
3,65.4,"Cc1nc(N[C@H](C)c2cccc(C(F)(F)F)c2C)c2cc(P3(=O)CCN(C(C)C)CC3)ncc2n1 [Example 53, 4-[2-methyl-4-({(1R)-1-[2-methyl-3-(trifluoromethyl)phenyl]ethyl}amino)pyrido[3,4-d]pyrimidin-6-yl]-1-(propan-2-yl)-1,4lambda^5-azaphosphinan-4-one]"
4,22.5,"Cc1nc(N[C@H](C)c2cccc(C(F)(F)C(C)(C)O)c2F)c2cc(P3(=O)CCN(Cc4ccccc4)CC3)ncc2n1 [Example 54, 1-benzyl-4-[4-({(1R)-1-[3-(1,1-difluoro-2-hydroxy-2-methylpropyl)-2-fluorophenyl]ethyl}amino)-2-methylpyrido[3,4-d]pyrimidin-6-yl]-1,4lambda^5-azaphosphinan-4-one]"
5,26.2,"Cc1nc(N[C@H](C)c2cccc(C(F)(F)F)c2F)c2cc(P(C)(C)=O)ncc2n1 [Example 55, 6-(dimethylphosphoryl)-N-{(1R)-1-[2-fluoro-3-(trifluoromethyl)phenyl]ethyl}-2-methylpyrido[3,4-d]pyrimidin-4-amine]"
6,74.1,"Cc1nc(N[C@H](C)c2cccc(Br)c2F)c2cc(P(C)(C)=O)ncc2n1 [Example 56, N-[(1R)-1-(3-bromo-2-fluorophenyl)ethyl]-6-(dimethylphosphoryl)-2-methylpyrido[3,4-d]pyrimidin-4-amine]"
7,19.3,"CC(=O)N1CCP(=O)(c2cc3c(N[C@H](C)c4cccc(C(F)F)c4)nc(C)nc3cn2)CC1 [Example 57, 1-acetyl-4-[4-{{(1R)-1-[3-(difluoromethyl)phenyl]ethyl}amino)-2-methylpyrido[3,4-d]pyrimidin-6-yl]-1,4lambda^5-azaphosphinan-4-one]"
8,6.33,"CC(=O)N1CCP(=O)(c2cc3c(N[C@H](C)c4cc(C)cc(C(F)(F)F)c4C)nc(C)nc3cn2)CC1 [Example 58, 1-acetyl-4-[4-{{(1R)-1-[2,5-dimethyl-3-(trifluoromethyl)phenyl]ethyl}amino)-2-methylpyrido[3,4-d]pyrimidin-6-yl]-1,4lambda^5-azaphosphinan-4-one]"

# Continued, compound first:
row,SMILES,IC50 [nM]
1,"Cc1nc(N[C@H](C)c2cccc(C(F)(F)F)c2C)c2cc(P3(=O)CCN(c4cnn(C)c4)CC3)ncc2n1 [Example 39, 4-[2-methyl-4-({(1R)-1-[2-methyl-3-(trifluoromethyl)phenyl]ethyl}amino)pyrido[3,4-d]pyrimidin-6-yl]-1-(1-methyl-1H-pyrazol-4-yl)-1,4lambda^5-azaphosphinan-4-one]",11.1
2,"Cc1nc(N[C@H](C)c2cccc(C(F)(F)F)c2C)c2cc(P3(=O)CCN(c4ccn(C)n4)CC3)ncc2n1 [Example 40, 4-[2-methyl-4-({(1R)-1-[2-methyl-3-(trifluoromethyl)phenyl]ethyl}amino)pyrido[3,4-d]pyrimidin-6-yl]-1-(1-methyl-1H-pyrazol-3-yl)-1,4lambda^5-azaphosphinan-4-one]",18.3
3,"Cc1nc(N[C@H](C)c2cccc(C(F)(F)F)c2C)c2cc(P3(=O)CCN(S(C)(=O)=O)CC3)ncc2n1 [Example 41, 1-(methanesulfonyl)-4-[2-methyl-4-({(1R)-1-[2-methyl-3-(trifluoromethyl)phenyl]ethyl}amino)pyrido[3,4-d]pyrimidin-6-yl]-1,4lambda^5-azaphosphinan-4-one]",174
4,"CC(=O)N1CCP(=O)(c2cc3c(N[C@H](C)c4cccc(C(F)(F)CO)c4F)nc(C)nc3cn2)CC1 [Example 42, 1-acetyl-4-[4-({(1R)-1-[3-(1,1-difluoro-2-hydroxyethyl)-2-fluorophenyl]ethyl}amino)-2-methylpyrido[3,4-d]pyrimidin-6-yl]-1,4lambda^5-azaphosphinan-4-one]",4.87
5,"CC(=O)N1CCP(=O)(c2cc3c(N[C@H](C)c4cccc(C(F)(F)C(=O)O)c4F)nc(C)nc3cn2)CC1 [Example 43, {3-[(1R)-1-{[6-(1-acetyl-4-oxo-1,4lambda^5-azaphosphinan-4-yl)-2-methylpyrido[3,4-d]pyrimidin-4-yl]amino}ethyl]-2-fluorophenyl}(difluoro)acetic acid]",375
6,"CC(=O)N1CCP(=O)(c2cc3c(N[C@H](C)c4cccc(C(F)(F)C(=O)NC5CC5)c4F)nc(C)nc3cn2)CC1 [Example 44, 2-{3-[(1R)-1-{[6-(1-acetyl-4-oxo-1,4lambda^5-azaphosphinan-4-yl)-2-methylpyrido[3,4-d]pyrimidin-4-yl]amino}ethyl]-2-fluorophenyl}-N-cyclopropyl-2,2-difluoroacetamide]",15.9
7,"CC(=O)N1CCP(=O)(c2cc3c(N[C@H](C)c4cccc(C(F)(F)C(=O)N(C)C)c4F)nc(C)nc3cn2)CC1 [Example 45, 2-{3-[(1R)-1-{[6-(1-acetyl-4-oxo-1,4lambda^5-azaphosphinan-4-yl)-2-methylpyrido[3,4-d]pyrimidin-4-yl]amino}ethyl]-2-fluorophenyl}-2,2-difluoro-N,N-dimethylacetamide]",17
8,"CC(=O)N1CCP(=O)(c2cc3c(N[C@H](C)c4cccc(C(F)(F)C(N)=O)c4F)nc(C)nc3cn2)CC1 [Example 46, 2-{3-[(1R)-1-{[6-(1-acetyl-4-oxo-1,4lambda^5-azaphosphinan-4-yl)-2-methylpyrido[3,4-d]pyrimidin-4-yl]amino}ethyl]-2-fluorophenyl}-2,2-difluoroacetamide]",6.1
9,"CNC(=O)C(F)(F)c1cccc([C@@H](C)Nc2nc(C)nc3cnc(P4(=O)CCN(C(C)=O)CC4)cc23)c1F [Example 47, 2-{3-[(1R)-1-{[6-(1-acetyl-4-oxo-1,4lambda^5-azaphosphinan-4-yl)-2-methylpyrido[3,4-d]pyrimidin-4-yl]amino}ethyl]-2-fluorophenyl}-2,2-difluoro-N-methylacetamide]",13.8
10,"Cc1nc(N[C@H](C)c2cccc(C(F)(F)C(N)=O)c2F)c2cc(P(C)(C)=O)ncc2n1 [Example 48, 2-{3-[(1R)-1-{[6-(dimethylphosphoryl)-2-methylpyrido[3,4-d]pyrimidin-4-yl]amino}ethyl]-2-fluorophenyl}-2,2-difluoroacetamide]",29.3
11,"CCNC(=O)C(F)(F)c1cccc([C@@H](C)Nc2nc(C)nc3cnc(P(C)(C)=O)cc23)c1F [Example 49, 2-{3-[(1R)-1-{[6-(dimethylphosphoryl)-2-methylpyrido[3,4-d]pyrimidin-4-yl]amino}ethyl]-2-fluorophenyl}-N-ethyl-2,2-difluoroacetamide]",87.5
12,"Cc1nc(N[C@H](C)c2cccc(C(F)(F)C(=O)N(C)C)c2F)c2cc(P(C)(C)=O)ncc2n1 [Example 50, 2-{3-[(1R)-1-{[6-(dimethylphosphoryl)-2-methylpyrido[3,4-d]pyrimidin-4-yl]amino}ethyl]-2-fluorophenyl}-2,2-difluoro-N,N-dimethylacetamide]",156
